In EP0462621A2, “Use of particular compounds for manufacture of pharmaceutical formulations for treatment against various parasites, mycoplasmas, other indications and other infections” (Prendergast, Patrick Thomas, priority 1990, dated 1991):

Experiments:
Type in all cases: cell-based
[1] = tested on: L major/L mexicana; assay: Leishmania promastigote (PRO) in-vitro screen; details: Lm.
Description: (§1) Following initial infection, the amastigote is the only form present in the mammalian host, surviving and dividing in various macrophage populations. Differences between the promastigote and amastigote in form and habitat are not matched by known biochemical dissimilarities. However, the drug susceptibility of the cultured promastigote, used in many early chemotherapy screens, contrasts markedly with that of the amastigote (see Table 1, below), most importantly to the clinically used pentavalent antimonials - sodium stibogluconate (Pentostam) and meglumine antimoniate (Glucantime).
(§2) Amastigotes of Leishmania can be cultivated in a wide range of mammalian cells, some of which may be used in in-vitro screens. These include (1) a Sticker dog sarcoma (fibroblast) cell line, (2) transformed rodent macrophage cell lines, (3) primary isolated mouse peritoneal macrophages (MP mo), and (4) human monocyte-derived macrophages (HM mo). The methods are similar for all models. Amastigote or promastigote infected cells are maintained in a medium containing the drug for 4-7 days, at 37 C for L. donovani and 33-35 C for L. major and L. mexicana. Drug activity is then assessed by counting (I) the number of infected host cells and/or (II) the number of amastigotes/100 host cells.
(§3) In-vitro and in-vivo models were used to test activities of a selection of many compounds. Those activities are summarized in Tables 1-3, showing variation between systems and species. Activities measured in the MP mo and HM mo models have shown the best correlation with results obtained in hamster and mouse models.

[2] = tested on: L donovani; assay: Leishmania promastigote (PRO) in-vitro screen; details: Ld.
Description: as §1, §2, §3

[3] = tested on: monocyte/macrophage cultures; assay: Appearance and differentiation of monocyte/macrophage cultures in Experiment la(a)
Protocol: Fresh macrophage cultures were obtained by incubation of mononuclear cells obtained from a leukopak directly in the wells of a microtiter plate having 6 wells per row. After removal of non-adherent cells, each row of the adherent macrophages was infected with 10-fold serial dilutions of HIV-I, with the use of polybrene to enhance uptake of the virus. After one to two hours, the virus inoculum was removed and replaced with fresh normal growth medium. The fresh medium for each row contained a particular concentration of AZT, dideoxy cytidine (ddC), or compound la, as indicated by the left-hand column of Table la(a). The first row of wells acted as a control, and to it was added fresh medium containing none of the three drugs. Medium levels were maintained for two to four weeks to allow replication of the virus to take place, with at least one complete fluid change to remove residual virus inoculum. The contents of each well were then tested for the level of HIV p24 antigen present using a commercially available antigen capture kit employing a radio-immunoassay which can detect as little as 10'^9gm of p24 present in a sample. The above procedure was done in duplicate runs.

CC(C)=CCNc1ncnc2c1ncn2[C@@H]1O[C@H](CO)[C@@H](O)[C@H]1O [IPA, N^6-(Δ^2-isopentenyl) adenosine]
Activity, PRO [1]: +
Activity, PRO [2]: + +
appearance of monocyte/macrophage cultures ([3]; all concentrations of IPA used (3-1000 μM)): appeared to be healthy
differentiation of small immature monocytes into large adherent macrophage cells ([3]; in the presence of IPA): did not take place
